Assay results as given in the supplement of paper PMC8612539.

Tested on: Histophilus somni
Test: minimum inhibitory concentration (MIC)
Experimental: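 Broth microdilution MIC (Sensititre BOPO7F bovine plate, CLSI methods) of 19 antimicrobials against field isolates of P. multocida, M. haemolytica, H. somni (deep nasopharyngeal swabs) and E. coli, Enterococcus spp. (rectal swabs) from weaned dairy heifers. Incubation 16-24 h at 35 C. MIC is the lowest concentration preventing visible growth. Values with <= or > lie at the tested range limits. Trimethoprim-sulfamethoxazole is given as the trimethoprim component of a 1:19 mixture.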

Measured: minimum inhibitory concentration

CCN1CCN(c2cc3c(cc2F)c(=O)c(C(=O)O)cn3C2CC2)CC1 [Enrofloxacin]
≤ 0.12 µg/mL: isolate (source animal id): 3 | isolate (source animal id): 4 | isolate (source animal id): 7 | isolate (source animal id): 14 | isolate (source animal id): 15 | isolate (source animal id): 17 | isolate (source animal id): 18 | isolate (source animal id): 20 | isolate (source animal id): 23 | isolate (source animal id): 45 | isolate (source animal id): 53 | isolate (source animal id): 83 | isolate (source animal id): 88 | isolate (source animal id): 92 | isolate (source animal id): 93 | isolate (source animal id): 99 | isolate (source animal id): 100 | isolate (source animal id): 105 | isolate (source animal id): 107 | isolate (source animal id): 108 | isolate (source animal id): 109 | isolate (source animal id): 110 | isolate (source animal id): 117 | isolate (source animal id): 121 | isolate (source animal id): 123 | isolate (source animal id): 124 | isolate (source animal id): 127 | isolate (source animal id): 128 | isolate (source animal id): 130 | isolate (source animal id): 132 | isolate (source animal id): 135 | isolate (source animal id): 140 | isolate (source animal id): 141 | isolate (source animal id): 142 | isolate (source animal id): 144 | isolate (source animal id): 146 | isolate (source animal id): 147 | isolate (source animal id): 151 | isolate (source animal id): 153 | isolate (source animal id): 154 | isolate (source animal id): 156 | isolate (source animal id): 157 | isolate (source animal id): 176 | isolate (source animal id): 183 | isolate (source animal id): 186 | isolate (source animal id): 196 | isolate (source animal id): 198 | isolate (source animal id): 200 | isolate (source animal id): 206 | isolate (source animal id): 208 | isolate (source animal id): 210 | isolate (source animal id): 212 | isolate (source animal id): 215 | isolate (source animal id): 216 | isolate (source animal id): 218 | isolate (source animal id): 219 | isolate (source animal id): 224 | isolate (source animal id): 228 | isolate (source animal id): 230 | isolate (source animal id): 233 | isolate (source animal id): 238 | isolate (source animal id): 239 | isolate (source animal id): 241 | isolate (source animal id): 242 | isolate (source animal id): 243 | isolate (source animal id): 245 | isolate (source animal id): 246 | isolate (source animal id): 247 | isolate (source animal id): 248 | isolate (source animal id): 250 | isolate (source animal id): 251 | isolate (source animal id): 252 | isolate (source animal id): 254 | isolate (source animal id): 258 | isolate (source animal id): 259 | isolate (source animal id): 262 | isolate (source animal id): 264 | isolate (source animal id): 265 | isolate (source animal id): 266 | isolate (source animal id): 267 | isolate (source animal id): 269 | isolate (source animal id): 271 | isolate (source animal id): 272 | isolate (source animal id): 274 | isolate (source animal id): 276 | isolate (source animal id): 278 | isolate (source animal id): 280 | isolate (source animal id): 281 | isolate (source animal id): 283 | isolate (source animal id): 288 | isolate (source animal id): 291 | isolate (source animal id): 292 | isolate (source animal id): 296 | isolate (source animal id): 306 | isolate (source animal id): 336 | isolate (source animal id): 337 | isolate (source animal id): 341
